Reference: ChEMBL document CHEMBL1201861, “Genomics of Drug Sensitity in Cancer screening data, Wellcome Trust Sanger Institute”

What was measured:
Test in all cases: cells
MHH-NB-11 = assay type: functional, cell-based, Homo sapiens; settings: Homo sapiens, MHH-NB-11;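 also: growth inhibition of human MHH-NB-11 cells, read out by a cell viability assay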
Description: SANGER: Inhibition of human MHH-NB-11 cell growth in a cell viability assay.

647-V = assay type: functional, cell-based, Homo sapiens; settings: Homo sapiens, 647-V;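 also: growth inhibition of 647-V cells, read out with a cell viability assay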
Description: SANGER: Inhibition of human 647-V cell growth in a cell viability assay.

UMC-11 = assay type: functional, cell-based, Homo sapiens; settings: Homo sapiens, UMC-11;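 also: growth inhibition of UMC-11 cells, read out with a cell viability assay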
Description: SANGER: Inhibition of human UMC-11 cell growth in a cell viability assay.

EOL1 = assay type: functional, cell-based; settings: Homo sapiens;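 also: growth inhibition of EoL-1 cells, read out by a cell viability assay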
Description: SANGER: Inhibition of human EoL-1-cell cell growth in a cell viability assay.

HT = assay type: functional, cell-based; settings: Homo sapiens
Description: SANGER: Inhibition of human HT cell growth in a cell viability assay.

A704 = assay type: functional, cell-based, Homo sapiens; settings: Homo sapiens, A704;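 also: growth inhibition of human A704 cells, read out with a cell viability assay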
Description: SANGER: Inhibition of human A704 cell growth in a cell viability assay.

EW-16 = assay type: functional, cell-based, Homo sapiens; settings: Homo sapiens, EW-16;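 also: growth inhibition of human EW-16 cells, read out as cell viability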
Description: SANGER: Inhibition of human EW-16 cell growth in a cell viability assay.

DOHH-2 = assay type: functional, cell-based; settings: Homo sapiens;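 also: growth inhibition of human DOHH-2 cells, read out with a cell viability assay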
Description: SANGER: Inhibition of human DOHH-2 cell growth in a cell viability assay.

SW1710 = assay type: functional, cell-based, Homo sapiens; settings: Homo sapiens, SW1710;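 also: growth inhibition of SW1710 cells, determined with a cell viability assay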
Description: SANGER: Inhibition of human SW1710 cell growth in a cell viability assay.

SW837 = assay type: functional, cell-based, Homo sapiens; settings: Homo sapiens, SW837;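 also: growth inhibition of SW837 cells, determined with a cell viability assay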
Description: SANGER: Inhibition of human SW837 cell growth in a cell viability assay.

NCI-N87 = assay type: functional, cell-based, Homo sapiens; settings: Homo sapiens, NCI-N87;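 also: growth inhibition of human NCI-N87 cells, read out with a cell viability assay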
Description: SANGER: Inhibition of human NCI-N87 cell growth in a cell viability assay.

no-10 = assay type: functional, cell-based, Homo sapiens; settings: Homo sapiens;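 also: growth inhibition of no-10 cells, read out with a cell viability assay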
Description: SANGER: Inhibition of human no-10 cell growth in a cell viability assay.

EM-2 = assay type: functional, cell-based; settings: Homo sapiens;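 also: growth inhibition of EM-2 cells, read out with a cell viability assay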
Description: SANGER: Inhibition of human EM-2 cell growth in a cell viability assay.

TGBC1TKB = assay type: functional, cell-based, Homo sapiens; settings: Homo sapiens, TGBC1TKB;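 also: growth inhibition of TGBC1TKB cells, read out by a cell viability assay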
Description: SANGER: Inhibition of human TGBC1TKB cell growth in a cell viability assay.

A2058 = assay type: functional, cell-based; settings: Homo sapiens;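 also: reduction of A2058 cell growth, read out with a viability assay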
Description: SANGER: Inhibition of human A2058 cell growth in a cell viability assay.

MKN-7 = assay type: functional, cell-based, Homo sapiens; settings: Homo sapiens, MKN-7;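 also: growth inhibition of MKN-7 cells, read out with a cell viability assay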
Description: SANGER: Inhibition of human MKN7 cell growth in a cell viability assay.

COLO-679 = assay type: functional, cell-based, Homo sapiens; settings: Homo sapiens, COLO-679
Description: SANGER: Inhibition of human COLO-679 cell growth in a cell viability assay.

DB = assay type: functional, cell-based; settings: Homo sapiens
Description: SANGER: Inhibition of human DB cell growth in a cell viability assay.

HOP-92 = assay type: functional, cell-based, Homo sapiens; settings: Homo sapiens, HOP-92;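 also: cell viability readout, with IC50 reflecting inhibition of HOP-92 cell growth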
Description: SANGER: Inhibition of human HOP-92 cell growth in a cell viability assay.

GAMG = assay type: functional, cell-based, Homo sapiens; settings: Homo sapiens, GAMG;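 also: cell growth inhibition measured by a viability assay in the GAMG human cell line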
Description: SANGER: Inhibition of human GAMG cell growth in a cell viability assay.

SW 962 = assay type: functional, cell-based, Homo sapiens; settings: Homo sapiens, SW 962;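 also: growth inhibition of human SW962 cells, read out by a cell viability assay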
Description: SANGER: Inhibition of human SW962 cell growth in a cell viability assay.

NCI-H727 = assay type: functional, cell-based, Homo sapiens; settings: Homo sapiens, NCI-H727;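 also: growth inhibition of human NCI-H727 cells, read out with a cell viability assay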
Description: SANGER: Inhibition of human NCI-H727 cell growth in a cell viability assay.

TE-6 = assay type: functional, cell-based, Homo sapiens; settings: Homo sapiens, TE-6;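 also: growth inhibition of TE-6 cells, read out with a cell viability assay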
Description: SANGER: Inhibition of human TE-6 cell growth in a cell viability assay.

NCI-H2052 = assay type: functional, cell-based, Homo sapiens; settings: Homo sapiens, NCI-H2052;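 also: growth inhibition of NCI-H2052 cells, read out with a cell viability assay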
Description: SANGER: Inhibition of human NCI-H2052 cell growth in a cell viability assay.

HCC1569 = assay type: functional, cell-based, Homo sapiens; settings: Homo sapiens, HCC1569;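 also: growth inhibition of human HCC1569 cells, read out with a cell viability assay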
Description: SANGER: Inhibition of human HCC1569 cell growth in a cell viability assay.

BXPC-3 = assay type: functional, cell-based, Homo sapiens; settings: Homo sapiens, BXPC-3;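 also: growth inhibition of human BxPC-3 cells, read out by a cell viability assay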
Description: SANGER: Inhibition of human BxPC-3 cell growth in a cell viability assay.

SN12C = assay type: functional, cell-based, Homo sapiens; settings: Homo sapiens, SN12C;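 also: growth inhibition of human SN12C cells, measured by a cell viability assay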
Description: SANGER: Inhibition of human SN12C cell growth in a cell viability assay.

OMC-1 = assay type: functional, cell-based, Homo sapiens; settings: Homo sapiens, OMC-1;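 also: growth inhibition of the OMC-1 cell line, measured by a cell viability assay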
Description: SANGER: Inhibition of human OMC-1 cell growth in a cell viability assay.

GR-ST = assay type: functional, cell-based; settings: Homo sapiens
Description: SANGER: Inhibition of human GR-ST cell growth in a cell viability assay.

KINGS-1 = assay type: functional, cell-based, Homo sapiens; settings: Homo sapiens, KINGS-1;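 also: cell viability assay measuring suppression of KINGS-1 cell growth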
Description: SANGER: Inhibition of human KINGS-1 cell growth in a cell viability assay.

DOK = assay type: functional, cell-based, Homo sapiens; settings: Homo sapiens, DOK;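 also: cell viability assay read-out, values reflect inhibition of cell growth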
Description: SANGER: Inhibition of human DOK cell growth in a cell viability assay.

NB6 = assay type: functional, cell-based, Homo sapiens; settings: Homo sapiens, NB6;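 also: growth inhibition of NB6 cells, read out by a cell viability assay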
Description: SANGER: Inhibition of human NB6 cell growth in a cell viability assay.

AM-38 = assay type: functional, cell-based, Homo sapiens; settings: Homo sapiens, AM-38;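 also: growth inhibition of AM-38 cells of human origin, read out by a cell viability assay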
Description: SANGER: Inhibition of human AM-38 cell growth in a cell viability assay.

KY821 = assay type: functional, cell-based; settings: Homo sapiens;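 also: growth inhibition of human KY821 cells, read out by a cell viability assay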
Description: SANGER: Inhibition of human KY821 cell growth in a cell viability assay.

SW780 = assay type: functional, cell-based, Homo sapiens; settings: Homo sapiens, SW780;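 also: growth inhibition of the cells, read out with a cell viability assay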
Description: SANGER: Inhibition of human SW780 cell growth in a cell viability assay.

ES6 = assay type: functional, cell-based, Homo sapiens; settings: Homo sapiens, ES6;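 also: growth inhibition of human ES6 cells, read out with a cell viability assay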
Description: SANGER: Inhibition of human ES6 cell growth in a cell viability assay.

NCI-H2030 = assay type: functional, cell-based, Homo sapiens; settings: Homo sapiens, NCI-H2030;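 also: growth inhibition of human NCI-H2030 cells, read out by a cell viability assay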
Description: SANGER: Inhibition of human NCI-H2030 cell growth in a cell viability assay.

MIA PaCa-2 = assay type: functional, cell-based, Homo sapiens; settings: Homo sapiens, MIA PaCa-2;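 also: growth inhibition of MIA PaCa-2 cells, read out with a cell viability assay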
Description: SANGER: Inhibition of human MIA-PaCa-2 cell growth in a cell viability assay.

RS4-11 = assay type: functional, cell-based; settings: Homo sapiens;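 also: growth inhibition of RS4-11 cells, read out by a cell viability assay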
Description: SANGER: Inhibition of human RS4-11 cell growth in a cell viability assay.

SBC-5 = assay type: functional, cell-based, Homo sapiens; settings: Homo sapiens, SBC-5;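 also: cell viability assay read-out, IC50 is the concentration that inhibits growth of the cells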
Description: SANGER: Inhibition of human SBC-5 cell growth in a cell viability assay.

COLO-320-HSR = assay type: functional, cell-based; settings: Homo sapiens;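 also: growth inhibition of COLO-320-HSR cells, determined with a cell viability assay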
Description: SANGER: Inhibition of human COLO-320-HSR cell growth in a cell viability assay.

D-263MG = assay type: functional, cell-based, Homo sapiens; settings: Homo sapiens, D-263MG
Description: SANGER: Inhibition of human D-263MG cell growth in a cell viability assay.

SW 954 = assay type: functional, cell-based, Homo sapiens; settings: Homo sapiens, SW 954;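 also: growth inhibition of SW954 human cancer cells, read out as cell viability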
Description: SANGER: Inhibition of human SW954 cell growth in a cell viability assay.

COLO-824 = assay type: functional, cell-based, Homo sapiens; settings: Homo sapiens, COLO-824
Description: SANGER: Inhibition of human COLO-824 cell growth in a cell viability assay.

TE-11 = assay type: functional, cell-based, Homo sapiens; settings: Homo sapiens, TE-11;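 also: growth inhibition of human TE-11 cells, read out by a cell viability assay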
Description: SANGER: Inhibition of human TE-11 cell growth in a cell viability assay.

SK-MES-1 = assay type: functional, cell-based, Homo sapiens; settings: Homo sapiens, SK-MES-1;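 also: growth inhibition of human SK-MES-1 cells, read out with a cell viability assay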
Description: SANGER: Inhibition of human SK-MES-1 cell growth in a cell viability assay.

LS-1034 = assay type: functional, cell-based, Homo sapiens; settings: Homo sapiens, LS-1034
Description: SANGER: Inhibition of human LS-1034 cell growth in a cell viability assay.

NH-12 = assay type: functional, cell-based, Homo sapiens; settings: Homo sapiens, NH-12;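 also: growth inhibition of NH-12 cells, read out with a cell viability assay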
Description: SANGER: Inhibition of human NH-12 cell growth in a cell viability assay.

KM12 = assay type: functional, cell-based, Homo sapiens; settings: Homo sapiens, KM12;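 also: KM12 cell growth inhibition, read out with a cell viability assay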
Description: SANGER: Inhibition of human KM12 cell growth in a cell viability assay.

U2OS = assay type: functional, cell-based, Homo sapiens, U-2-OS; settings: Homo sapiens, U2OS;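 also: growth inhibition of human U-2-OS cells, determined with a cell viability assay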
Description: SANGER: Inhibition of human U-2-OS cell growth in a cell viability assay.

HCC 2998 = assay type: functional, cell-based, Homo sapiens; settings: Homo sapiens, HCC 2998;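 also: growth inhibition of human HCC2998 cells, measured with a cell viability read-out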
Description: SANGER: Inhibition of human HCC2998 cell growth in a cell viability assay.

A 172 = assay type: functional, cell-based, Homo sapiens; settings: Homo sapiens, A 172;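 also: growth inhibition of A172 cells, measured with a cell viability readout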
Description: SANGER: Inhibition of human A172 cell growth in a cell viability assay.

SMILES: COc1ccc(-c2ccc3c(N4CCOC[C@@H]4C)nc(N4CCOC[C@@H]4C)nc3n2)cc1CO [AZD-8055]
- IC50 (MHH-NB-11): > 2 µM
- IC50 (647-V): 1.54 µM
- IC50 (UMC-11): > 2 µM
- IC50 (EOL1): 0.0657 µM
- IC50 (HT): 0.294 µM
- IC50 (A704): 0.818 µM
- IC50 (EW-16): 1.44 µM
- IC50 (DOHH-2): 0.793 µM
- IC50 (SW1710): 0.632 µM
- IC50 (SW837): > 2 µM
- IC50 (NCI-N87): > 2 µM
- IC50 (no-10): > 2 µM
- IC50 (EM-2): 0.342 µM
- IC50 (TGBC1TKB): 1.33 µM
- IC50 (A2058): 0.974 µM
- IC50 (MKN-7): 1.22 µM
- IC50 (COLO-679): > 2 µM
- IC50 (DB): 0.5 µM
- IC50 (HOP-92): > 2 µM
- IC50 (GAMG): 0.557 µM
- IC50 (SW 962): 0.472 µM
- IC50 (NCI-H727): > 2 µM
- IC50 (TE-6): 1.71 µM
- IC50 (NCI-H2052): 1.86 µM
- IC50 (HCC1569): 0.852 µM
- IC50 (BXPC-3): 0.888 µM
- IC50 (SN12C): 0.807 µM
- IC50 (OMC-1): 0.727 µM
- IC50 (GR-ST): 0.53 µM
- IC50 (KINGS-1): > 2 µM
- IC50 (DOK): 0.513 µM
- IC50 (NB6): > 2 µM
- IC50 (AM-38): 1.37 µM
- IC50 (KY821): 1.57 µM
- IC50 (SW780): 0.576 µM
- IC50 (ES6): 1.36 µM
- IC50 (NCI-H2030): 1.24 µM
- IC50 (MIA PaCa-2): 0.929 µM
- IC50 (RS4-11): 0.759 µM
- IC50 (SBC-5): 1.55 µM
- IC50 (COLO-320-HSR): > 2 µM
- IC50 (D-263MG): 1.33 µM
- IC50 (SW 954): > 2 µM
- IC50 (COLO-824): > 2 µM
- IC50 (TE-11): > 2 µM
- IC50 (SK-MES-1): 0.438 µM
- IC50 (LS-1034): > 2 µM
- IC50 (NH-12): 1.11 µM
- IC50 (KM12): 1.8 µM
- IC50 (U2OS): 0.76 µM
- IC50 (HCC 2998): 1.93 µM

SMILES: O=c1cc(-c2cccc3c2Sc2ccccc2S3)oc(N2CCOCC2)c1 [KU-55933]
- IC50 (MHH-NB-11): > 10 µM
- IC50 (647-V): > 10 µM
- IC50 (UMC-11): > 10 µM
- IC50 (HT): > 10 µM
- IC50 (A704): > 10 µM
- IC50 (EW-16): > 10 µM
- IC50 (DOHH-2): > 10 µM
- IC50 (SW1710): > 10 µM
- IC50 (SW837): > 10 µM
- IC50 (NCI-N87): > 10 µM
- IC50 (no-10): > 10 µM
- IC50 (EM-2): > 10 µM
- IC50 (TGBC1TKB): > 10 µM
- IC50 (A2058): > 10 µM
- IC50 (MKN-7): > 10 µM
- IC50 (COLO-679): > 10 µM
- IC50 (DB): > 10 µM
- IC50 (HOP-92): > 10 µM
- IC50 (GAMG): > 10 µM
- IC50 (SW 962): > 10 µM
- IC50 (NCI-H727): > 10 µM
- IC50 (TE-6): > 10 µM
- IC50 (NCI-H2052): > 10 µM
- IC50 (HCC1569): > 10 µM
- IC50 (BXPC-3): > 10 µM
- IC50 (SN12C): > 10 µM
- IC50 (OMC-1): > 10 µM
- IC50 (GR-ST): > 10 µM
- IC50 (KINGS-1): > 10 µM
- IC50 (DOK): > 10 µM
- IC50 (NB6): > 10 µM
- IC50 (AM-38): > 10 µM
- IC50 (A 172): > 10 µM
- IC50 (SW780): > 10 µM
- IC50 (ES6): > 10 µM
- IC50 (NCI-H2030): > 10 µM
- IC50 (MIA PaCa-2): > 10 µM
- IC50 (RS4-11): > 10 µM
- IC50 (SBC-5): > 10 µM
- IC50 (COLO-320-HSR): > 10 µM
- IC50 (D-263MG): > 10 µM
- IC50 (SW 954): > 10 µM
- IC50 (COLO-824): > 10 µM
- IC50 (TE-11): > 10 µM
- IC50 (SK-MES-1): > 10 µM
- IC50 (LS-1034): > 10 µM
- IC50 (NH-12): > 10 µM
- IC50 (KM12): 9.21 µM
- IC50 (U2OS): > 10 µM
- IC50 (HCC 2998): > 10 µM

SMILES: Cn1cc(C2=C(c3ccc(Cl)cc3Cl)C(=O)NC2=O)c2ccccc21 [SB-216763]
- IC50 (MHH-NB-11): > 10 µM
- IC50 (647-V): > 10 µM
- IC50 (UMC-11): > 10 µM
- IC50 (HT): > 10 µM
- IC50 (A704): > 10 µM
- IC50 (EW-16): > 10 µM
- IC50 (DOHH-2): > 10 µM
- IC50 (SW1710): > 10 µM
- IC50 (SW837): > 10 µM
- IC50 (NCI-N87): > 10 µM
- IC50 (no-10): > 10 µM
- IC50 (EM-2): > 10 µM
- IC50 (TGBC1TKB): > 10 µM
- IC50 (A2058): > 10 µM
- IC50 (MKN-7): > 10 µM
- IC50 (COLO-679): > 10 µM
- IC50 (DB): > 10 µM
- IC50 (HOP-92): > 10 µM
- IC50 (GAMG): 6.65 µM
- IC50 (SW 962): > 10 µM
- IC50 (NCI-H727): > 10 µM
- IC50 (TE-6): > 10 µM
- IC50 (NCI-H2052): > 10 µM
- IC50 (HCC1569): > 10 µM
- IC50 (BXPC-3): > 10 µM
- IC50 (SN12C): > 10 µM
- IC50 (GR-ST): > 10 µM
- IC50 (KINGS-1): > 10 µM
- IC50 (DOK): > 10 µM
- IC50 (NB6): > 10 µM
- IC50 (AM-38): > 10 µM
- IC50 (A 172): > 10 µM
- IC50 (SW780): > 10 µM
- IC50 (ES6): > 10 µM
- IC50 (NCI-H2030): > 10 µM
- IC50 (MIA PaCa-2): > 10 µM
- IC50 (RS4-11): 8.24 µM
- IC50 (SBC-5): > 10 µM
- IC50 (COLO-320-HSR): > 10 µM
- IC50 (D-263MG): > 10 µM
- IC50 (SW 954): > 10 µM
- IC50 (COLO-824): > 10 µM
- IC50 (TE-11): > 10 µM
- IC50 (SK-MES-1): > 10 µM
- IC50 (LS-1034): > 10 µM
- IC50 (NH-12): > 10 µM
- IC50 (KM12): > 10 µM
- IC50 (U2OS): > 10 µM
- IC50 (HCC 2998): > 10 µM
